Test results published in US11692008B2, “Preparation and uses of reactive oxygen species scavenger derivatives” (XWPHARMA LTD., priority 2017, dated 2023).
Where two headings read alike, the source gives them in different places.

How the values were obtained:
3T3-L1 cells = experiment: Apoptosis assay (Caspase-Glo 3/7, Actinomycin D induced); assay type: cell-based; conditions: 100 nM Actinomycin D, read-out: EC50, inhibition for apoptosis in 3T3-L1 cell induced by Actinomycin D
Method: Cell Lines and Media. 3T3-L1 cells were obtained from American Type Culture Collection. Cells were grown in DMEM completed media, 10% FBS, and penicillin-streptomycin mix (Invitrogen). Cells were maintained at 37° C. and 5% CO2 in a tissue culture incubator.
Apoptosis Assay. […] We used this assay to screen our compounds for apoptosis inhibition. Briefly, 40 μL of 3000 3T3-L1 cells were seeded per well in 384 well plates, Cells were allowed to adhere overnight. In the next day, prepare the Actinomycin D as the apoptosis inducing agent into 100 μM DMSO stock. Prepare the test compounds into 10 mM DMSO stock. Serial dilute the compound into 10 points by 3-fold dilution with DMSO. Pre-treat the 3T3-L1 cells with test compound by transfer 40 nL of stock of serial concentration in triplicate wells using acoustic fluid transfer, incubate for 2 hours. Then transfer 40 nL of 100 μM of Actinomycin D (final concentration is 100 nM) into designated wells using acoustic fluid transfer. Incubate the assay plates at 37° C., 5% CO2, 95% humidity incubator for 48 hours. For caspase assay, add 20 μL/well of Caspase-Glo® 3/7 reagent (Promega) into test wells. Incubate for 30 minutes at room temperature to stabilize the luminescence signal. Read the plate with EnSpire Multimode Plate Reader (PerkinElmer). Calculate the EC50 value using formula equation 201: y=(A+((B−A)/(1+((x/C)^D)))) from the XLFit (Excel add-in software), where • A: Average mean of vehicle samples • B: Average mean of cells treated with 100 nM AcD • C: EC50 • D: HillSlope Z′ factor was used to describe the screening assay performance. The Z′ factor value was >0.5 in all the test plates which indicated the assay was qualified and the IC50 value was reliable for all tested compounds.

HT-1080 cells = experiment: Ferroptosis cell viability assay (Erastin-induced, CellTiter-Glo); assay type: cell-based; conditions: read-out: EC50, inhibition for ferroptosis in HT-1080 cell
Method: Cell Lines and Media: HT-1080 (fibrosarcoma) cells were obtained from American Type Culture Collection. Cells were grown in EMEM media, 10% Heat-Inactivated FBS, and penicillin-streptomycin mix (Invitrogen). Cells were maintained at 37° C. and 5% CO2 in a tissue culture incubator.
Cell Viability Assay. Seed 10,000 cell/well of HT-1080 cells with 195 μL growth media in black and clear bottom 96-well plates (Cat #Corning3904) and allow cells to adhere overnight. The next day, dilute test compound by 2-fold dilution into 12 points with medium containing 400 μM Erastin. Transfer 5 μL of compounds solution into growth medium in triplicated wells. 30 hours later, add Cell Titer-Glo® Luminescent cell viability assay reagent (Cat #, Promega G8081) to measure HT-1080 cell viability according to the manufacture protocol. Briefly, aspirate 100 μL medium, and add 50 μL CellTiter-Glo® Luminescent reagent to each well and incubated for 30 minutes at room temperature to stabilize the Luminescent signal. Seal the plates and centrifuged for 1 minute at 1,000 rpm to remove bubbles. Shake the plates for 1 minute on an orbital shaker. Read the plate to detect Luminescent signal with EnSpire Multimode Plate Reader (PerkinElmer). The remaining activity % is used to evaluate Erastin induced ferroptosis in HT-1080 cells and expressed as the following formula: % Remaining Activity=100×[(Sample−Backgroundavg)/(Vehicle−Backgroundavg)]
Sample: Readout from the test compound
Vehicle: Readout from the vehicle sample
Background: Readout from the Erastin only treatment
Dose response curve is graphed by using the non-linear regression analysis (formula equation 201) in XLFit (Excel add-in software) for the average % remaining activity from triplicates, and the EC50 values is then calculated. In this anti-ferroptosis assay, ferrostatin-1, and XJB-5-131 are included as reference. The acceptance criteria were set based on historical result, mean±2.58*SD in logarithmic scale, meanwhile Z′>0.5.

Structure (SMILES) | EC50 (HT-1080 cells; 30 hours) | EC50 (HT-1080 cells; Homo sapiens, HT-1080, 30 h) | further results
CC1=C(C)C(=O)C(CCCOC(=O)NCCCC[C@H](NC(=O)[C@@H]2CCCN2C(=O)[C@H](/C=C/[C@H](CC(C)C)NC(=O)OC(C)(C)C)Cc2ccccc2)C(=O)NC(C)C)=CC1=O [V, tert-butyl N-[(4S,5E,7S)-7-benzyl-8-[(2S)-2-{[(1S)-5-({[3-(4,5-dimethyl-3,6-dioxocyclohexa-1,4-dien-1-yl)propoxy]carbonyl}amino)-1-[(propan-2-yl)carbamoyl]pentyl]carbamoyl}pyrrolidin-1-yl]-2-methyl-8-oxooct-5-en-4-yl]carbamate] | – | 196 nM | EC50 (3T3-L1 cells; Mus musculus, 3T3-L1, 48 h): 2740 nM
CCOC(=O)N[C@H](/C=C/[C@H](Cc1ccccc1)C(=O)N1CCC[C@H]1C(=O)N[C@@H](CCCCC1=C(C)C(=O)C(C)=C(C)C1=O)C(=O)NC(C)C)CC(C)C [VII, ethyl ((4S,7S,E)-7-benzyl-8-((S)-2-(((S)-1-(isopropylamino)-1-oxo-6-(2,4,5-trimethyl-3,6-dioxocyclohexa-1,4-dien-1-yl)hexan-2-yl)carbamoyl)pyrrolidin1-yl)-2-methyl-8-oxooct-5-en-4-yl)carbamate] | – | 80.5 nM | –
COc1c(C)c(C)c(OC)c(CCCOC(=O)NCCC[C@H](NC(=O)[C@@H](NC(=O)[C@@H]2CCCN2C(=O)[C@H](/C=C/[C@H](CC(C)C)NC(=O)OC(C)(C)C)Cc2ccccc2)C(C)C)C(=O)NC(C)C)c1C [VIII, tert-butyl N-[(4S,5E,7S)-7-benzyl-8-[(2S)-2-{[(1S)-1-{[(1S)-4-({[3-(2,5-dimethoxy-3,4,6-trimethylphenyl)propoxy]carbonyl}amino)-1-[(propan-2-yl)carbamoyl]butyl]carbamoyl}-2-methylpropyl]carbamoyl}pyrrolidin-1-yl]-2-methyl-8-oxooct-5-en-4-yl]carbamate] | – | > 6000 nM | –
CC1=C(C)C(=O)C(CCCOc2ccc(C[C@H](NC(=O)[C@@H]3CCCN3C(=O)[C@H](/C=C/[C@H](CC(C)C)NC(=O)OC(C)(C)C)Cc3ccccc3)C(=O)NC(C)C)cc2)=C(C)C1=O [X, tert-Butyl ((4S,7S,E)-7-benzyl-8-((S)-2-(((S)-1-(isopropylamino)-1-oxo-3-(4-(3-(2,4,5-trimethyl-3,6-dioxocyclohexa-1,4-dien-1-yl)propoxy)phenyl)propan-2-yl)carbamoyl)pyrrolidin-1-yl)-2-methyl-8-oxooct-5-en-4-yl)carbamate] | – | 56.9 nM | –
CC1=C(C)C(=O)C(CCCOC(=O)NCCC[C@H](NC(=O)[C@@H]2CCCN2C(=O)[C@H](/C=C/[C@H](CC(C)C)NC(=O)OC(C)(C)C)Cc2ccccc2)C(=O)NC2CC2)=C(C)C1=O [XII, 3-(2,4,5-trimethyl-3,6-dioxocyclohexa-1,4-dien-1-yl)propyl N-[(4S)-4-{[(2S)-1-[(2S,3E,5S)-2-benzyl-5-{[(tert-butoxy)carbonyl]amino}-7-methyloct-3-enoyl]pyrrolidin-2-yl]formamido}-4-(cyclopropylcarbamoyl)butyl] carbamate] | – | 149 nM | –

Second part, led by results:

EC50 (HT-1080 cells; 30 hours) | EC50 (HT-1080 cells; Homo sapiens, HT-1080, 30 h) | Structure (SMILES) | further results
119 nM | – | CC1=C(C)C(=O)C(CCC(=O)NCCCC[C@H](NC(=O)[C@@H]2CCCN2C(=O)[C@H](/C=C/[C@H](CC(C)C)NC(=O)OC(C)(C)C)Cc2ccccc2)C(=O)NC(C)C)=CC1=O [I, tert-Butyl ((4S,7S,E)-7-benzyl-8-((S)-2-(((S)-6-(3-(4,5-dimethyl-3,6-dioxocyclohexa-1,4-dien-1-yl)propanamido)-1-(isopropylamino)-1-oxohexan-2-yl)carbamoyl)pyrrolidin-1-yl)-2-methyl-8-oxooct-5-en-4-yl)carbamate] | EC50 (3T3-L1 cells; Mus musculus, 3T3-L1, 48 h): 1150 nM
– | 34.6 nM | COC1=C(OC)C(=O)C(CCCCCCCCCCOC(=O)NCCCC[C@H](NC(=O)[C@@H]2CCCN2C(=O)[C@H](/C=C/[C@H](CC(C)C)NC(=O)OC(C)(C)C)Cc2ccccc2)C(=O)NC(C)C)=C(C)C1=O [III, tert-butyl N-[(4S,5E,7S)-7-benzyl-8-[(2S)-2-{[(1S)-5-[({[10-(4,5-dimethoxy-2-methyl-3,6-dioxocyclohexa-1,4-dien-1-yl)decyl]oxy}carbonyl)amino]-1-[(propan-2-yl)carbamoyl]pentyl]carbamoyl}pyrrolidin-1-yl]-2-methyl-8-oxooct-5-en-4-yl]carbamate] | –
33 nM | – | CC1=C(C)C(=O)C(CCCOC(=O)NCCCC[C@H](NC(=O)[C@@H]2CCCN2C(=O)[C@H](/C=C/[C@H](CC(C)C)NC(=O)OC(C)(C)C)Cc2ccccc2)C(=O)NC(C)C)=CC1=O [II] | –
24.4 nM | – | CC1=C(C)C(=O)C(CCC(=O)NCCCC[C@H](NC(=O)[C@@H]2CCCN2C(=O)[C@H](/C=C/[C@H](CC(C)C)NC(=O)OC(C)(C)C)Cc2ccccc2)C(=O)NC(C)C)=CC1=O [IV, tert-Butyl ((4S,7S,E)-7-benzyl-8-((S)-2-(((S)-6-(3-(4,5-dimethyl-3,6-dioxocyclohexa-1,4-dien-1-yl)propanamido)-1-(isopropylamino)-1-oxohexan-2-yl)carbamoyl)pyrrolidin-1-yl)-2-methyl-8-oxooct-5-en-4-yl) carbamate] | EC50 (3T3-L1 cells; 48 hours): 702 nM
– | 49.3 nM | CC1=C(C)C(=O)C(CCCOC(=O)NCCCC[C@H](NC(=O)[C@@H]2CCCN2C(=O)[C@H](/C=C/[C@H](CC(C)C)NC(=O)OCC2CC2)Cc2ccccc2)C(=O)NC(C)C)=C(C)C1=O [IX, Cyclopropylmethyl N-[(4S,5E,7S)-7-benzyl-2-methyl-8-oxo-8-[(2S)-2-{[(1S)-1-[(propan-2-yl)carbamoyl]-5-({[3-(2,4,5-trimethyl-3,6-dioxocyclohexa-1,4-dien-1-yl)propoxy]carbonyl}amino)pentyl]carbamoyl}pyrrolidin-1-yl]oct-5-en-4-yl]carbamate] | –
39.1 nM | – | CC1=C(C)C(=O)C(CCCC[C@H](NC(=O)[C@@H]2CCCN2C(=O)[C@H](/C=C/[C@H](CC(C)C)NC(=O)OC(C)(C)C)Cc2ccccc2)C(=O)NC(C)C)=C(C)C1=O [VI] | EC50 (3T3-L1 cells; 48 hours): 7320 nM
– | 47 nM | CC1=C(C)C(=O)C(CCCOC(=O)NCCC[C@H](NC(=O)[C@@H](NC(=O)[C@@H]2CCCN2C(=O)[C@H](/C=C/[C@H](CC(C)C)NC(=O)OC(C)(C)C)Cc2ccccc2)C(C)C)C(=O)NC(C)C)=C(C)C1=O [XI, tert-butyl N-[(4S,5E,7S)-7-benzyl-2-methyl-8-[(2S)-2-{[(1S)-2-methyl-1-{[[(1S)-1-[(propan-2-yl)carbamoyl]-4-({3-(2,4,5-trimethyl-3,6-dioxocyclohexa-1,4-dien-1-yl)propoxy]carbonyl}amino)butyl]carbamoyl}propyl]carbamoyl}pyrrolidin-1-yl]-8-oxooct-5-en-4-yl]carbamate] | –
